From ChEMBL document CHEMBL1131359, “Design of new inhibitors for cdc2 kinase based on a multiple pseudosubstrate structure” (Bioorg Med Chem Lett, 1998)
Calls of active or inactive are those of the source. The calls are words filed in the database; no cut-off is given here. Residues, ends and D or L forms follow the SMILES beside them. *: point of attachment. X3 = CN(C)CCCn1cc(C2=C(c3cn(CCOCC*)c4ccccc34)C(=O)NC2=O)c2ccccc21; X4 = O=C1NC(=O)C(c2cn(CCOCCOCCOC*)c3ccccc23)=C1c1c[nH]c2ccccc12; X1 = O=C1NC(=O)C(c2cn(CCOCCOCC*)c3ccccc23)=C1c1c[nH]c2ccccc12; X2 = O=C1NC(=O)C(c2cn(CCOCC*)c3ccccc23)=C1c1c[nH]c2ccccc12

Experiments:
[1] = biological target: Cyclin-dependent kinase 1/cyclin B (Homo sapiens, UniProt P06493); experiment: Inhibitory concentration was determined by measuring phosphorylation of H1 histone using active human Cell division cycle 2-cyclin B complex; format: protein-complex assay
[2] = biological target: T1, Protein kinase C (PKC) (Homo sapiens) (UniProt O94806+P41743+P17252+P05129+Q05655+P05771+Q05513+Q02156+P24723+Q15139+Q04759); experiment: Inhibition of protein kinase C at 24 uM; format: protein assay
[3] = biological target: T1, Protein kinase C (PKC) (Homo sapiens); experiment: Inhibition of protein kinase C at 2.4 uM; format: protein assay
[4] = biological target: T1, Protein kinase C (PKC) (Homo sapiens); experiment: Inhibition of protein kinase C at 240 uM; format: protein assay
[5] = Inhibition of Calcium/calmodulin-dependent protein kinase at 24 uM (No inhibition)
[6] = biological target: T2, Cyclin-dependent kinase 1/cyclin B (Homo sapiens) (UniProt P06493+P14635+Q8WWL7+O95067); experiment: Inhibition of Cell division cycle 2-cyclin B at 24 uM (No inhibition); format: protein-complex assay
[7] = Inhibition of Calcium/calmodulin-dependent protein kinase at 240 uM (No inhibition)
[8] = biological target: T2, Cyclin-dependent kinase 1/cyclin B (Homo sapiens); experiment: Inhibition of Cell division cycle 2-cyclin B at 2.4 uM (No inhibition); format: protein-complex assay
[9] = biological target: T3, cAMP-dependent protein kinase (PKA) (Homo sapiens) (UniProt P22694+P17612+P22612); experiment: Inhibition of protein kinase A at 2.4 uM (No inhibition); format: protein assay
[10] = Inhibition of Calcium/calmodulin-dependent protein kinase at 2.4 uM (No inhibition)
[11] = biological target: T3, cAMP-dependent protein kinase (PKA) (Homo sapiens); experiment: Inhibition of protein kinase A at 240 uM (No inhibition); format: protein assay
[12] = biological target: T3, cAMP-dependent protein kinase (PKA) (Homo sapiens); experiment: Inhibition of protein kinase A at 24 uM (No inhibition); format: protein assay
[13] = biological target: T2, Cyclin-dependent kinase 1/cyclin B (Homo sapiens); experiment: Inhibition of Cell division cycle 2-cyclin B at 240 uM (Partial inhibition); format: protein-complex assay
[14] = biological target: T2, Cyclin-dependent kinase 1/cyclin B (Homo sapiens); experiment: Inhibition of Cell division cycle 2-cyclin B at 24 uM (Partial inhibition); format: protein-complex assay
[15] = biological target: T3, cAMP-dependent protein kinase (PKA) (Homo sapiens); experiment: Inhibition of protein kinase A at 24 uM (partial); format: protein assay
[16] = biological target: T2, Cyclin-dependent kinase 1/cyclin B (Homo sapiens); conditions: 240 uM
[17] = biological target: T3, cAMP-dependent protein kinase (PKA) (Homo sapiens); experiment: Inhibition of protein kinase A at 240 uM; format: protein assay
[18] = Inhibition of Calcium/calmodulin-dependent protein kinase at 240 uM (Partial)

For `CNC(=O)[C@H](CCCCN)NC(=O)[C@H](CCCCN)NC(=O)[C@@H]1CCCN1C(=O)[C@H](CSCCOCCn1cc(C2=C(c3c[nH]c4ccccc34)C(=O)NC2=O)c2ccccc21)NC(C)=O` (Ac-C(X2)PKK-NHMe), the IC50 [1] was 98 µM.
With `O=C1NC(=O)C(c2cn(CCOCCOCCOCCO)c3ccccc23)=C1c1c[nH]c2ccccc12` the IC50 [1] was 55 µM.
For `CNC(=O)[C@H](CCCCN)NC(=O)[C@H](CCCCN)NC(=O)[C@@H]1CCCN1C(=O)[C@H](CSCCOCCn1cc(C2=C(c3cn(CCCN(C)C)c4ccccc34)C(=O)NC2=O)c2ccccc21)NC(C)=O` (Ac-C(X3)PKK-NHMe), the IC50 [1] was > 1000 µM.
`O=C1NC(=O)C(c2cn(CCOCCOCCO)c3ccccc23)=C1c1c[nH]c2ccccc12` gave an IC50 [1] of 285 µM.
With `CNC(=O)[C@H](CCCCN)NC(=O)[C@H](CCCCN)NC(=O)[C@@H]1CCCN1C(=O)[C@H](CO)NC(=O)[C@H](CSCOCCOCCOCCn1cc(C2=C(c3c[nH]c4ccccc34)C(=O)NC2=O)c2ccccc21)NC(C)=O` (Ac-C(X4)SPKK-NHMe) the IC50 [1] was 570 µM.
With `CNC(=O)[C@H](CCCCN)NC(=O)[C@H](CCCCN)NC(=O)[C@@H]1CCCN1C(=O)[C@H](CSCCOCCOCCn1cc(C2=C(c3c[nH]c4ccccc34)C(=O)NC2=O)c2ccccc21)NC(C)=O` (Ac-C(X1)PKK-NHMe) the inhibition [2] was > 75%, the inhibition [3] was > 75% and the IC50 [1] was 4.5 µM. For the same molecule, the inhibition [4] was > 75%, the inhibition [5] was “inactive” and the inhibition [6] was “inactive”. For the same molecule, the inhibition [7] was “inactive”, the inhibition [8] was “inactive” and the inhibition [9] was “inactive”. The inhibition [10] was “inactive”, the inhibition [11] was “inactive” and the inhibition [12] was “inactive”. The inhibition [13] was “Weak activity”.
In the case of `CNC(=O)[C@H](CCCCN)NC(=O)[C@H](CCCCN)NC(=O)[C@@H]1CCCN1C(=O)[C@H](CSCCOCCOCCn1cc(C2=C(c3cn(CCCN(C)C)c4ccccc34)C(=O)NC2=O)c2ccccc21)NC(C)=O`, the IC50 [1] is reported as > 1000 µM.
For `CN(C)CCCn1cc(C2=C(c3c[nH]c4ccccc34)C(=O)NC2=O)c2ccccc21` [GF-109203], the inhibition [2] was > 75%, the inhibition [3] was > 75% and the IC50 [1] was 19 µM. The inhibition [14] was “Weak activity”, the inhibition [4] was > 75% and the inhibition [5] was “inactive”. For the same molecule, the inhibition [15] was “Weak activity”, the inhibition [7] was “inactive” and the inhibition [8] was “inactive”. For the same molecule, the inhibition [9] was “inactive”, the inhibition [10] was “inactive” and the inhibition [16] was > 75%. The inhibition [17] was > 75%.
In the case of `O=C1NC(=O)C(c2c[nH]c3ccccc23)=C1c1c[nH]c2ccccc12` [RO-316233], the IC50 [1] is reported as 18 µM, the inhibition [14] is reported as “Weak activity” and the inhibition [5] is reported as “inactive”. For the same molecule, the inhibition [15] was “Weak activity”, the inhibition [8] was “inactive” and the inhibition [18] was “Weak activity”. The inhibition [9] was “inactive”, the inhibition [10] was “inactive” and the inhibition [16] was > 75%. For the same molecule, the inhibition [17] was > 75%.
Work on `CN(C)CCCn1cc(C2=C(c3cn(CCOCCOCCO)c4ccccc34)C(=O)NC2=O)c2ccccc21` yielded an IC50 [1] of 35 µM.
With `CN(C)CCCn1cc(C2=C(c3cn(CCOCCO)c4ccccc34)C(=O)NC2=O)c2ccccc21` the IC50 [1] was 22 µM.
In the case of `O=C1NC(=O)C(c2cn(CCOCCO)c3ccccc23)=C1c1c[nH]c2ccccc12`, the inhibition [2] is reported as > 75%, the inhibition [3] is reported as > 75% and the IC50 [1] is reported as 4 µM. The inhibition [4] was > 75%, the inhibition [5] was “inactive” and the inhibition [6] was “inactive”. The inhibition [7] was “inactive”, the inhibition [8] was “inactive” and the inhibition [9] was “inactive”. For the same molecule, the inhibition [10] was “inactive”, the inhibition [12] was “inactive” and the inhibition [17] was > 75%. The inhibition [13] was “Weak activity”.
In the case of `CNC(=O)[C@H](CCCCN)NC(=O)[C@H](CCCCN)NC(=O)[C@@H]1CCCN1C(=O)[C@H](CSCCOCCOCCOCCn1cc(C2=C(c3c[nH]c4ccccc34)C(=O)NC2=O)c2ccccc21)NC(C)=O`, the IC50 [1] is reported as 31 µM.
For `CNC(=O)[C@H](CCCCN)NC(=O)[C@H](CCCCN)NC(=O)[C@@H]1CCCN1C(=O)[C@H](CS)NC(C)=O` (HELM PEPTIDE1{[ac].C.P.K.K.[CN[*:1]]}$$$$V2.0), the IC50 [1] was > 1000 µM.
In the case of `CNC(=O)[C@H](CCCCN)NC(=O)[C@H](CCCCN)NC(=O)[C@@H]1CCCN1C(=O)[C@H](CO)NC(=O)[C@H](CSCCOCCOCCn1cc(C2=C(c3c[nH]c4ccccc34)C(=O)NC2=O)c2ccccc21)NC(C)=O` (Ac-C(X1)SPKK-NHMe), the IC50 [1] is reported as 220 µM.
